Results published in patent US20250214991A1 (Oncopia Therapeutics, Inc. d/b/a/ SK Life Science Labs, priority 2022, published 2025).

Legend:
CRBN/DDB1 = CRBN/DDB1 (Homo sapiens (Human), UniProt Q96SW2); assay: IC50 measurements for binding to CRBN/DDB1 (HTRF); details: His tagged CRBN+DDB, Cy5-labeled Thalidomide probe, one hour
In short: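 HTRF competition binding with 2 nM His-tagged CRBN-DDB1 complex, 60 nM Cy5-thalidomide probe and 0.4 nM anti-His Tb cryptate in 50 mM HEPES pH 7.5, 1 mM TCEP, 0.01% Brij-35, 50 mM NaCl, 0.1% BSA. Read after 1 h at room temperature; IC50 from four-parameter dose-response fit.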

IKZF2 = IKZF2 (Homo sapiens (Human), UniProt Q96SW2+Q9UKS7); assay: In vitro IKZF2 Western Blot Assay in Jurkat cells; assay type: cell-based; details: 24 hrs; for inhibition at 0.001 µM: read-out: IKZF2 degradation (%) @ μM 0.001; for inhibition at 0.01 µM: read-out: IKZF2 degradation (%) @ μM 0.01; for inhibition at 0.1 µM: read-out: IKZF2 degradation (%) @ μM 0.1; for inhibition at 1 µM: read-out: IKZF2 degradation (%) @ μM 1; for inhibition at 10 µM: read-out: IKZF2 degradation (%) @ μM 10
Sequence of IKZF2 (Q9UKS7 whole entry): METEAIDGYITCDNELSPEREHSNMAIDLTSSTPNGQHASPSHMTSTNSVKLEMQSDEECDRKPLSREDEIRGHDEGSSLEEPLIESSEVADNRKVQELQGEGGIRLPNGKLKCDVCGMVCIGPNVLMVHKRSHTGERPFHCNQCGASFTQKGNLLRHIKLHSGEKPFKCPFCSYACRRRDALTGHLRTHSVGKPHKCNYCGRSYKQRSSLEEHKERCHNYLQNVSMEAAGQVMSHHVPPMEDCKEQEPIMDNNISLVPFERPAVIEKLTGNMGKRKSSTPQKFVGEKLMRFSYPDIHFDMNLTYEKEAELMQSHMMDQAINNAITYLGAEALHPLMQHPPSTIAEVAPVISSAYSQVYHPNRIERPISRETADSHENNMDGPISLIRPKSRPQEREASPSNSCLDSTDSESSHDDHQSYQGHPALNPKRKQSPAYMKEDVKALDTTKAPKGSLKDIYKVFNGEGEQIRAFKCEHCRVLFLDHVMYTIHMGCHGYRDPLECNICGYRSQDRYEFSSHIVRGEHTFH
Sequence of IKZF2 (Q96SW2 whole entry): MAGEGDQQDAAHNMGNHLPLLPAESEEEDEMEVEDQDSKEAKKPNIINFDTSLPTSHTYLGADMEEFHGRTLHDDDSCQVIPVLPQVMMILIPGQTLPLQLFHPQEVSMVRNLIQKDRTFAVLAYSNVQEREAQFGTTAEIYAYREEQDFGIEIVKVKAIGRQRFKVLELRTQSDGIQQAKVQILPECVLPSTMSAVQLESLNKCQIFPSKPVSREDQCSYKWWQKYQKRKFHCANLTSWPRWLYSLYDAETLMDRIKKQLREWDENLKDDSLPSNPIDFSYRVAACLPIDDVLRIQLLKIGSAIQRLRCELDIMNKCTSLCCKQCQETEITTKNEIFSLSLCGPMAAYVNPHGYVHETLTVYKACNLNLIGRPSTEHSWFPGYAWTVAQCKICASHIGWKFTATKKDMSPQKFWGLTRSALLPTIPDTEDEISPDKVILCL
Sequence of IKZF2 (Q16531 2-1140 partner): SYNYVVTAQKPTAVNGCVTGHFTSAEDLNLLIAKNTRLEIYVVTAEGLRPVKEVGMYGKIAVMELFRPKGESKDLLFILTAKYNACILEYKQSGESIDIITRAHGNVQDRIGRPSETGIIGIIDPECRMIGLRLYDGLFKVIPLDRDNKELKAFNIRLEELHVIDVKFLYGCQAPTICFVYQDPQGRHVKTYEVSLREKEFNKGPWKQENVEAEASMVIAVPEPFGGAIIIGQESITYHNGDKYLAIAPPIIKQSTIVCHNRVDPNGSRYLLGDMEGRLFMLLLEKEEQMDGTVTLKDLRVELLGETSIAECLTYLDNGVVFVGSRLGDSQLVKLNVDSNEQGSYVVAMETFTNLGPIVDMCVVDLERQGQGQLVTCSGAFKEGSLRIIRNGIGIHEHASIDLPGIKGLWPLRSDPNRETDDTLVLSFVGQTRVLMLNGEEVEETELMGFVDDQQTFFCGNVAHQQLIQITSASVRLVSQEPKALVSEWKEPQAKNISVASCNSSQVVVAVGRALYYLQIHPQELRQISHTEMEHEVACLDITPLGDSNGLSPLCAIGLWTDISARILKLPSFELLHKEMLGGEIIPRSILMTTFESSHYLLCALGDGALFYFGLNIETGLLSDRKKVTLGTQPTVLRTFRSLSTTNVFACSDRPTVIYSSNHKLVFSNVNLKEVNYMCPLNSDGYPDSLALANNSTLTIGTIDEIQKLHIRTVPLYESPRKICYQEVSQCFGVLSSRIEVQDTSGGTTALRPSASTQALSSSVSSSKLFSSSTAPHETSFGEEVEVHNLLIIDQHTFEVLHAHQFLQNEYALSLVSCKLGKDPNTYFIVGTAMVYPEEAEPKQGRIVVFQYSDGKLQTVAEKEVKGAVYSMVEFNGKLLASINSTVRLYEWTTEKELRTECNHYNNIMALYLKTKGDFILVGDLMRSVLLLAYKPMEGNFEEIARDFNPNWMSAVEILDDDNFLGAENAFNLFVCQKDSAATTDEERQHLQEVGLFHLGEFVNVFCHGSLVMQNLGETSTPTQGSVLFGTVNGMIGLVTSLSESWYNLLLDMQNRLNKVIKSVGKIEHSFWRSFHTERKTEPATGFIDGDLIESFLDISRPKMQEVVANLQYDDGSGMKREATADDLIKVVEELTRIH
Description: In vitro IKZF2 Western Blot Assay Jurkat cells (ATCC, Cat #HB-8065) were cultured in RPMI1640+10% FBS+1% P/S. Cells were treated at desired compound concentrations (0.001, 0.01, 0.1, 1, and 10 μM) and DMSO as vehicle control for 24 hrs. After 24 hr of treatment cells were collected by centrifugation and lysed in RIPA lysis buffer on ice for 10 min. After assessing protein concentration by BCA assay (Pierce), equal amounts of protein for each sample were loaded into 4-12% Bis-Tris gels (Invitrogen), transferred to PVDF membranes and immunoblotted with antibodies against IKZF2 and Actin (Cell Signaling). Membranes were developed on an Odyssey detection system (LI-COR Biosciences) after incubation with IRDye800-labeled goat anti-rabbit IgG and IRDye680-labeled goat anti-mouse IgG (LI-COR) secondary antibodies. Band intensities were quantified using ImageStudio software. Data was further analyzed using XLfit. Percentage of IKZF2 protein degradation: A (>50%); B (30-50%); C(<30%) (Table 2).

Sequence of CRBN/DDB1 (Q96SW2 whole entry, species assumed): as the sequence (Q96SW2 whole entry) above
Sequence of CRBN/DDB1 (Q16531 whole entry partner, species assumed): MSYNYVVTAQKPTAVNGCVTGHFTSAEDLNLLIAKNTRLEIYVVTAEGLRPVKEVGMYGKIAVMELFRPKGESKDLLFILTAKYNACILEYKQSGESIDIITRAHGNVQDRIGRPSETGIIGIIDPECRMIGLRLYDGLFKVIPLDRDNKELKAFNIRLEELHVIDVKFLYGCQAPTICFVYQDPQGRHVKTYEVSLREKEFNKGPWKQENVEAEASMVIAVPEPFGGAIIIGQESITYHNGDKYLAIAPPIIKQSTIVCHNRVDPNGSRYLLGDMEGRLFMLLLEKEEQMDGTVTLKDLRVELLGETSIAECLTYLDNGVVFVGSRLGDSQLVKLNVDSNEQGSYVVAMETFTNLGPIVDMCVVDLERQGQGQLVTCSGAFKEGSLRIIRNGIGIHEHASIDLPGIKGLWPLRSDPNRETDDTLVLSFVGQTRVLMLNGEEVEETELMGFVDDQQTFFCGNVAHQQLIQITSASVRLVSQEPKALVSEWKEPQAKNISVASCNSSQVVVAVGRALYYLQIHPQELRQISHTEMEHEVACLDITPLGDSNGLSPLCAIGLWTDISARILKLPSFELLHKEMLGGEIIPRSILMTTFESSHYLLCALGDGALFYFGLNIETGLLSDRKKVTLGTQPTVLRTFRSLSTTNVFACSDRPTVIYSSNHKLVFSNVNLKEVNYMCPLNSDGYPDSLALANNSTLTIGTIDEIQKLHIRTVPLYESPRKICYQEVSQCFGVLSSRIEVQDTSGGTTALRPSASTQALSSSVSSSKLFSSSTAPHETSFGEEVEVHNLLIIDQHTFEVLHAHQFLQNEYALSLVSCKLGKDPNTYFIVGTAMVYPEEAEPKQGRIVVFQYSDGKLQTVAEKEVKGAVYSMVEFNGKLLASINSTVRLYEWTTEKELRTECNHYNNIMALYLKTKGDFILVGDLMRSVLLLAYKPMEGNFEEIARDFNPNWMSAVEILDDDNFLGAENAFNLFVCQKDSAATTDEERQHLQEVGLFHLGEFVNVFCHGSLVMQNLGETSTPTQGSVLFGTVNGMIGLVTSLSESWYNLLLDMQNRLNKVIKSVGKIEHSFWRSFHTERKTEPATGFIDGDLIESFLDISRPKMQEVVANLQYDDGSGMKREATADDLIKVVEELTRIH

| SMILES | IC50 (CRBN/DDB1) [nM] | inhibition at 0.001 µM (IKZF2) [%] | inhibition at 0.01 µM (IKZF2) [%] | inhibition at 0.1 µM (IKZF2) [%] | inhibition at 1 µM (IKZF2) [%] | inhibition at 10 µM (IKZF2) [%] |
| --- | --- | --- | --- | --- | --- | --- |
| O=C1CCC(N2Cc3cc(-c4cc(CN5CCC(C(F)(F)F)CC5)cn5ccnc45)ccc3C2=O)C(=O)N1 (stereo not drawn) [Example 37, 3-(1-oxo-5-(6-((4-(trifluoromethyl)piperidin-1-yl)methyl)imidazo[1,2-a]pyridin-8-yl)isoindolin-2-yl) piperidine-2,6-dione] | < 100 | < 30 | < 30 | < 30 | < 30 | < 30 |
| O=C1CCC(N2Cc3cc(-c4cc(CNCc5ccccc5Cl)cn5ccnc45)ccc3C2=O)C(=O)N1 (stereo not drawn) [Example 38, 3-(5-(6-(((2-chlorobenzyl)amino)methyl)imidazo[1,2-a]pyridin-8-yl)-1-oxoisoindolin-2-yl) piperidine-2,6-dione] | 100 to 500 | < 30 | < 30 | < 30 | < 30 | < 30 |
| O=C1CCC(N2Cc3cc(-c4cc(CNCCc5c(F)cccc5F)cn5ccnc45)ccc3C2=O)C(=O)N1 (stereo not drawn) [Example 39, 3-(5-(6-(((2,6-difluorophenethyl)amino)methyl)imidazo[1,2-a]pyridin-8-yl)-1-oxoisoindolin-2-yl) piperidine-2,6-dione] | < 100 | < 30 | < 30 | < 30 | < 30 | < 30 |
| O=C1CCC(N2Cc3cc(-c4cc(CNCCc5ccc(Cl)cc5Cl)cn5ccnc45)ccc3C2=O)C(=O)N1 (stereo not drawn) [Example 40, 3-(5-(6-(((2,4-dichlorophenethyl)amino)methyl)imidazo[1,2-a]pyridin-8-yl)-1-oxoisoindolin-2-yl) piperidine-2,6-dione] | 100 to 500 | < 30 | < 30 | < 30 | < 30 | 30 to 50 |
| O=C1CCC(N2Cc3cc(-c4cc(CNCCc5c(Cl)cccc5Cl)cn5ccnc45)ccc3C2=O)C(=O)N1 (stereo not drawn) [Example 41, 3-(5-(6-(((2,6-dichlorophenethyl)amino)methyl)imidazo[1,2-a]pyridin-8-yl)-1-oxoisoindolin-2-yl) piperidine-2,6-dione] | 100 to 500 | < 30 | < 30 | < 30 | < 30 | < 30 |
| Cc1ccccc1CCNCc1cc(-c2ccc3c(c2)CN(C2CCC(=O)NC2=O)C3=O)c2nccn2c1 (stereo not drawn) [Example 42, 3-(5-(6-(((2-methylphenethyl)amino)methyl)imidazo[1,2-a]pyridin-8-yl)-1-oxoisoindolin-2-yl) piperidine-2,6-dione] | < 100 | < 30 | < 30 | < 30 | < 30 | 30 to 50 |
| O=C1CCC(N2Cc3cc(-c4cc(CNCCc5ccccc5C(F)(F)F)cn5ccnc45)ccc3C2=O)C(=O)N1 (stereo not drawn) [Example 43] | < 100 | < 30 | < 30 | < 30 | < 30 | < 30 |
| O=C1CCC(N2Cc3cc(-c4cc(CNCCc5ccccc5Cl)cn5ccnc45)ccc3C2=O)C(=O)N1 (stereo not drawn) [Example 44, 3-(5-(6-(((2-chlorophenethyl)amino)methyl)imidazo[1,2-a]pyridin-8-yl)-1-oxoisoindolin-2-yl) piperidine-2,6-dione] | 100 to 500 | < 30 | < 30 | 30 to 50 | < 30 | 30 to 50 |
| CC(NCc1cc(-c2ccc3c(c2)CN(C2CCC(=O)NC2=O)C3=O)c2nccn2c1)c1ccccc1 (stereo not drawn) [Example 45, 3-(1-oxo-5-(6-(((1-phenylethyl)amino)methyl)imidazo[1,2-a]pyridin-8-yl)isoindolin-2-yl) piperidine-2,6-dione] | 100 to 500 | 30 to 50 | < 30 | < 30 | > 50 | < 30 |
| CC(C)(NCc1cc(-c2ccc3c(c2)CN(C2CCC(=O)NC2=O)C3=O)c2nccn2c1)c1ccccc1 (stereo not drawn) [Example 46, 3-(1-oxo-5-(6-(((2-phenylpropan-2-yl)amino)methyl)imidazo[1,2-a]pyridin-8-yl)isoindolin-2-yl) piperidine-2,6-dione] | 100 to 500 | < 30 | < 30 | 30 to 50 | > 50 | > 50 |
| O=C1CCC(N2Cc3cc(-c4cc(CN5CCC(c6ccccc6)CC5)cn5ccnc45)ccc3C2=O)C(=O)N1 (stereo not drawn) [Example 47, 3-(1-oxo-5-(6-((4-phenylpiperidin-1-yl)methyl)imidazo[1,2-a]pyridin-8-yl)isoindolin-2-yl) piperidine-2,6-dione] | < 100 | 30 to 50 | 30 to 50 | < 30 | < 30 | < 30 |
| O=C1CCC(N2Cc3cc(-c4cc(CN5CC(c6ccccc6)C5)cn5ccnc45)ccc3C2=O)C(=O)N1 (stereo not drawn) [Example 48, 3-(1-oxo-5-(6-((3-phenylazetidin-1-yl)methyl)imidazo[1,2-a]pyridin-8-yl)isoindolin-2-yl) piperidine-2,6-dione] | < 100 | < 30 | < 30 | < 30 | < 30 | < 30 |
| O=C1CCC(N2Cc3cc(-c4cc(CN5CCCC5c5ccccc5)cn5ccnc45)ccc3C2=O)C(=O)N1 (stereo not drawn) [Example 49, 3-(1-oxo-5-(6-((2-phenylpyrrolidin-1-yl)methyl)imidazo[1,2-a]pyridin-8-yl)isoindolin-2-yl) piperidine-2,6-dione] | 100 to 500 | < 30 | < 30 | < 30 | < 30 | < 30 |
